The values below come from ChEMBL document CHEMBL6121007, “Design, synthesis and evaluation of pyrimidine derivatives as sedative-hypnotic agents” (Eur J Med Chem, 2025).

The nature of series [1]: Apparent volume of distribution in male Sprague-Dawley rat at 2.5 mg/kg, ip measured after 5 to 1440 mins by LC-MS/MS analysis. It is filed as ADME, organism-based. As to conditions: in vivo, time 5-1440 min.
For series [2], the system named is Mus musculus. Nature of the series: Sedative-hypnotic activity in mouse assessed as reduction in grip strength score at 50 mg/kg, ip administrated as single dose and measured after 30 mins by grip strength test. Format: functional, organism-based.
A short description of series [3]: Cmax in male Sprague-Dawley rat at 2.5 mg/kg, ip measured after 5 to 1440 mins by LC-MS/MS analysis. Format: ADME, organism-based. As to conditions: in vivo, time 5-1440 min.
Series [4] concerns Mus musculus. The series is described as follows: Sedative-hypnotic activity in pentobarbital-induced mouse assessed as decrease in sleep latency at 0.5 to 2.5 mg/kg, ip administrated as single dose. Format: functional, organism-based. As to conditions: dose 0.5-2.5 mg/kg.
Series [5] can be described thus: Apparent volume of distribution in male Sprague-Dawley rat at 0.5 mg/kg, iv measured after 2 to 720 mins by LC-MS/MS analysis. It is filed as ADME, organism-based. As to conditions: in vivo, time 2-720 min, read-out: Vd(app).
A short description of series [6]: Upregulation of cAMP signaling pathway related genes in hypothalamus of mouse at 2.5 mg/kg, ip measured after 30 mins by KEGG enrichment analysis relative to control. It is filed as functional. As to conditions: 0.5 h.

The source made the active and inactive calls. No cut-off for these calls is given here.

As for `CCn1c2ccccc2c2cc(Nc3ccnc(Nc4ccc(C)c(OC)c4)n3)ccc21`, in series [1], the “Vd(app)” value was found to be 5.023 L/kg. The result in series [2] and in series [4] was Active. In series [3], the peak level (Cmax) was 281 ng/mL. Further, the Vd in series [5] was 2.9 L/kg. In series [6], this compound displayed an Activity of 4.62%.
